The source of these data is patent publication EP0028305A1, “Diaryl compounds and pharmaceutical formulations containing them” (THE WELLCOME FOUNDATION LIMITED, priority 1979, dated 1981).

For assay [1], the system named is virus. As to the kind of experiment: plaque reduction (PR) test. It is filed as cell-based. Conditions: read-out: PR(ED50/µM). The method, then:
(§1) Activity may be detected by the plaque inhibition (PI) test and measured by the plaque reduction (PR) test. Both assays involve the formation of a monolayer cell culture in a petri dish followed by infection with a virus suspension, and then overlaying the culture with nutrient agarose in the form of a gel. This gel ensures that there is no spread of virus throughout the culture and thus areas of localised cell destruction or plaques are formed.
Detectable activity is measured with the plaque reduction assay. A range of concentrations of compounds of known molarity are incorporated in the nutrient agarose overlay. Plaque suppression is proportional to compound concentration. Plaque numbers are expressed as percentages of a control, and a dose response curve may be drawn. From this curve 50% of the effective dose (ED50) may be estimated.

The subject of assay [2] is virus. The assay can be described thus: intranasal administration, simulation in vitro (plaque formation, compound applied to petri dish lid). The class given is cell-based. Conditions: lug dissolved in ethanol, applied to lids of petri dishes, ethanol evaporated; compound penetrated the agarose layer.
Source text: as §1
In the plaque inhibition test a filter paper disc which holds 0.01 ml when impregnated with a solution of a compound is placed on top of the agarose gel. The compound may then diffuse throughout the gel so that its greatest concentration will be around the disc and its lowest concentration towards the periphery of the petri dish. The efficacy of the compound may be detected by observing the zone of inhibition of plaque formation.
Petri dishes were prepared, as for the plaque inhibition test and the confluer sheet of cells was covered with a layer of agarose gel. The compound, of Example 12 (lug) was dissolved in ethanol, and applied to the lids of the petri dishes. When the ethanol had evaporated, leaving the compound spread over the inside of the lids, these were replaced on the petri dishes.

[3] abbreviates: plaque reduction assay, compound incorporated in nutrient agarose overlay.
Where [4] appears, read: second value printed in parentheses in the same cell, meaning not explained.

Molecules are shown by their SMILES. Where a name gives a salt, the structure may show the parent alone. Read-outs that look alike come from different tables or passages of the source.

With `Clc1ccc(CNc2ccccc2)cc1Cl` [Example 1, N-3,4-dichlorobenzylaniline hydrochloride], the EC50 in assay [1] (setting [3]) came to 0.17 µM.
In the case of `O=[N+]([O-])c1ccccc1OCc1ccc(Cl)cc1` [Example 2, 4-chlorobenzyl 2-nitrophenyl ether], the EC50 in assay [1] (setting [3]) was found to be 1.2 µM.
Still for that read-out and setting: the value for `CCc1ccc(OCc2ccc(Cl)cc2)cc1` [Example 3, 4-Chlorobenzyl 4-ethylphenyl ether] was 0.72 µM.
For `CC(C)(C)c1cccc(OCc2ccc(Cl)cc2)c1` [Example 4, 4-Chlorobenzyl 3-t-butylphenyl ether], the EC50 in assay [1] (setting [3]) is 1.9 µM; in assay [1] (setting [4]), 5 µM.
In the case of `Clc1ccc(COc2ccc(Cl)c(Cl)c2)cc1Cl` [Example 5, 3,4-Dichlorobenzyl 3,4-dichlorophenyl ether], the EC50 in assay [1] (setting [3]) was 0.47 µM.
For `FC(F)(F)c1cccc(OCc2ccccc2)c1` [Example 6, Benzyl 3-trifluoromethylphenyl ether], the values for the EC50 in assay [1] (setting [3]) and in assay [1] (setting [4]) were 0.66 µM and 1.7 µM, respectively.
Turning to `N#Cc1ccc(OCc2ccc(Cl)cc2)cc1` [Example 7, 4-Chlorobenzyl 4-cyanophenyl ether], in assay [1] (setting [3]), the EC50 is 0.22 µM.
On to `Cc1ccc(COc2ccc(C)cc2)cc1` [Example 8, 4-Methylbenzyl 4-methylphenyl ether], for which the EC50 in assay [1] (setting [3]) came to 0.56 µM.
With `O=C(O)c1ccc(OCc2ccc(Cl)cc2)cc1` [Example 9, 4-Chlorobenzyl 4-carboxyphenyl ether], the EC50 in assay [1] (setting [3]) came to 1.6 µM.
Still for that read-out and setting: the value for `Clc1cc(COc2ccccc2)cc(Cl)c1Cl` [Example 10, 3,4,5-Trichlorobenzyl phenyl ether] was 1.6 µM.
With `Clc1ccc(COc2ccc(Cl)c(Cl)c2)cc1` [Example 11, 4-Chlorobenzyl 3,4-dichlorophenyl ether], the EC50 in assay [1] (setting [3]) was 0.33 µM.
Regarding `Clc1ccc(CCCc2ccccc2)cc1Cl` [Example 12, 1-(3,4-dichlorophenyl)-3-phenylpropane], the EC50 in assay [1] (setting [3]) worked out at 0.068 µM. Further, the “inhibition of plaque formation” value in assay [2] is “total inhibition”.
For `OC(CCc1ccc(Cl)cc1)c1ccc(Cl)cc1` (stereo not drawn) [Example 13, 1,3-bis-(4-chlorophenyl)propan-1-ol], in assay [1] (setting [3]), the EC50 was 1.3 µM.
Consider `OC(CCc1ccc(Cl)c(Cl)c1)c1ccccc1` (stereo not drawn) [Example 14, 3-(3,4-dichlorophenyl)-1-phenylpropan-1-ol], for which, in assay [1] (setting [3]), the EC50 was 0.66 µM.
Regarding `O=C(CCc1ccc(Cl)c(Cl)c1)c1ccccc1` [Example 15, 3-(3,4-dichlorophenyl)-1-phenylpropan-1-one], the EC50 in assay [1] (setting [3]) was found to be 0.235 µM.
Consider `Clc1ccc(CC=Cc2ccccc2)cc1Cl` [Example 16, 3-(3,4-dichlorophenyl)-1-phenylpropene], for which, in assay [1] (setting [3]), the EC50 came to 0.19 µM.
Same read-out and setting: as for `OC(C=Cc1ccc(Cl)c(Cl)c1)c1ccccc1` (stereo not drawn) [Example 17, 3-(3,4-dichlorophenyl)-l-phenylprop-2-en-l-ol], the figure is 1.2 µM; as for `OC(C=Cc1ccc(Cl)cc1)c1ccc(Cl)cc1` (stereo not drawn) [Example 18, 1,3-bis-(4-chlorophenyl)prop-2-en-1-ol], 1.35 µM; as for `OC(COc1ccc(Cl)cc1)c1ccc(Cl)cc1` (stereo not drawn) [Example 19, 2-(4-chlorophenoxy)-1-(4-chlorophenyl)ethanol], 1.5 µM.
For the compound `OC(COc1ccc(Cl)c(Cl)c1)c1ccccc1` (stereo not drawn) [Example 20, 2-(3,4-dichloro^phenoxy)-l-phenylethanol], the EC50 in assay [1] (setting [3]) amounted to 2.5 µM.
The same measure, in the same setting: as for `NC(=S)c1ccc(OCc2ccc(Cl)cc2)cc1` [Example 21, 4-(4-chlorobenzyloxy)benzenecarbothioamide], the figure is 0.6 µM.
Same read-out and setting: as for `NC(=O)c1ccc(OCc2ccc(Cl)cc2)cc1` [Example 22, 4-(4-chlorobenzyloxy)benzamide], the figure is 0.43 µM; as for `OCc1cccc(OCc2ccc(Cl)cc2)c1` [Example 23, 4-chlorobenzyl 3-hydroxymethylphenyl ether], 0.53 µM; as for `OC(CNc1ccc(Cl)cc1)c1ccc(Cl)cc1` (stereo not drawn) [Example 24, 2-(4-chloroanilino)-1-(4-chlorophenyl)ethanol], 3 µM.
